Assay results reported in patent US20160263110A1 (priority 2013, published 2016).
“And” between values parts separate entries of the source, which are not always exact repeats. Equal entries are not always repeated. “Also recorded” adds a separate entry of the source. Where two headings read alike, the source gives them in different places.

How the values were obtained:
[1] = tested on: ALS patients; details: list of drugs tested in ALS, Zoccolella et al. 2009; cited from earlier work
[2] = tested on: ALS mouse model; details: list of drugs tested in ALS, Zoccolella et al. 2009; cited from earlier work
[3] = list of drugs tested in ALS, Zoccolella et al. 2009; cited from earlier work
[4] = safety data in non-oncology indications; format: in vivo
[5] = tested on: human cord blood mast cells; details: cited from earlier work
[6] = tested on: B6SJL-Tg SOD1G93A female mice; details: 30 mg/kg/day; from 90 to 120 days
[7] = tested on: Non-Tg SOD1G93A mice; test: negative intervention control in Non-Tg SOD1G93A mice; details: 100 mg/kg/day
[8] = tested on: SOD1G93A rats; test: ALS model in SOD1G93A rats: disease onset and survival
[9] = tested on: B6SJL-Tg SOD1G93A female mice
[10] = tested on: B6SJL-Tg SOD1G93A female mice; details: for Age of onse, Averages / Age of deal, Averages: average of 8 mice; for Age of onse, Averages: control average 101.25; for Age of deal, Averages: control average 135

Nc1nc2ccc(OC(F)(F)F)cc2s1 [riluzole, 6-(trifluoromethoxy)benzothiazol-2-amine]
Benefits [1]: Positive transient impact

CC/C(=C(\c1ccccc1)c1ccc(OCCN(C)C)cc1)c1ccccc1 [Tamoxifen]
Mouse model [2]: Overall positive | Human Safety [3]: Relatively safe | Benefits [1]: survival benefit

Cc1ccc(NC(=O)c2ccc(CN3CCN(C)CC3)cc2)cc1Nc1nc(-c2cccnc2)cs1 [masitinib, 4-(4-methylpiperazin-1-ylmethyl)-N-[4-methyl-3-(4-pyridin-3ylthiazol-2-ylamino)phenyl]benzamide]
tolerability, difference between doses ([4]; 3 mg/kg/day versus 6 mg/kg/day): no obvious difference | tolerability ([4]; dosage up to 6 mg/kg/day): well-tolerated | FccRI-mediated degranulation of human cord blood mast cells [5]: inhibition | weight loss versus Tg Ctrl [6]: reduced weight loss during the first stage of the disease | results in Non-Tg animals, masitinib versus water [7]: showed similar results to one another | survival without paralytic symptoms or weight loss (two rats of the group) ([8]; 40 mg/kg oral): 7 months | early paralysis and death (two rats of the group) ([8]; 40 mg/kg oral once a day Monday to Friday): died before week 6 | survival compared to control (vehicle) ([8]; 40 mg/kg oral, 5 times a week, 3 times a week from week 6, male rats from age 120 days, n=6): prolonged the survival; also recorded: survived longer | disease onset compared to vehicle ([8]; 40 mg/kg oral, after week 6): develop the disease later | hind-limb grip strength curve versus Tg Ctrl ([9]; 30 mg/kg/day): significantly improved the grip strength curve | hind-limb grip strength versus Tg Ctrl ([9]; 100 mg/kg/day, from 90 to 120 days): improved the grip strength during the first stage of the disease | median survival compared with positive control group ([10]; 30 mg/kg/day): higher | Age of onse ([10]; age of symptoms onset, individual mice, 100 mg/kg/day oral gavage Monday-Friday from 90 days old, 100 mg/kg/day): 109 (2×) and 111 (5×) and 115 | Age of onse, Averages ([10]; 30 mg/kg/day): 111.375 | Age of deal, Averages ([10]; 30 mg/kg/day): 139.625 | Age of onse, Averages ([10]; 100 mg/kg/day): 111 | Age of deal, Averages ([10]; 100 mg/kg/day): 132.125 | symptoms onset versus positive control ([10]; both doses, 30 or 100 mg/kg/day): significant delay of symptoms onset | survival versus positive control ([10]; righting reflex as surrogate for survival): trend to improve survival
